# Measured values as given in patent US5532267A, “Amidinonaphthyl furancarboxylate derivatives and acid addition salts therof” (Torii & Co., Ltd., priority 1992, dated 1996).
# Assays:
# thrombin = thrombin (Homo sapiens, UniProt P00734); test: anti-thrombin activity, hydrolysis of TAME (tosylarginine methyl ester); assay type: biochemical
# Experimental: The values in Table 1 represent molar concentrations (IC50) of test compounds which inhibit 50% of the activity of each enzyme to hydrolyze TAME (tosylarginine methyl ester). The anti-trypsin, anti-plasmin, anti-kallikrein and anti-thrombin activities were determined according to the method of Muramatsu et al. (J. Biochem. (1965), volume 58, page 214).
# C1s = biological target: T1, C1s (Homo sapiens, UniProt P09871); test: anti-complement (anti-C1 esterase) activity, C1s hydrolysis of ATEE (acetyltyrosine ethyl ester); assay type: biochemical
# T1 sequence (P09871 16-688): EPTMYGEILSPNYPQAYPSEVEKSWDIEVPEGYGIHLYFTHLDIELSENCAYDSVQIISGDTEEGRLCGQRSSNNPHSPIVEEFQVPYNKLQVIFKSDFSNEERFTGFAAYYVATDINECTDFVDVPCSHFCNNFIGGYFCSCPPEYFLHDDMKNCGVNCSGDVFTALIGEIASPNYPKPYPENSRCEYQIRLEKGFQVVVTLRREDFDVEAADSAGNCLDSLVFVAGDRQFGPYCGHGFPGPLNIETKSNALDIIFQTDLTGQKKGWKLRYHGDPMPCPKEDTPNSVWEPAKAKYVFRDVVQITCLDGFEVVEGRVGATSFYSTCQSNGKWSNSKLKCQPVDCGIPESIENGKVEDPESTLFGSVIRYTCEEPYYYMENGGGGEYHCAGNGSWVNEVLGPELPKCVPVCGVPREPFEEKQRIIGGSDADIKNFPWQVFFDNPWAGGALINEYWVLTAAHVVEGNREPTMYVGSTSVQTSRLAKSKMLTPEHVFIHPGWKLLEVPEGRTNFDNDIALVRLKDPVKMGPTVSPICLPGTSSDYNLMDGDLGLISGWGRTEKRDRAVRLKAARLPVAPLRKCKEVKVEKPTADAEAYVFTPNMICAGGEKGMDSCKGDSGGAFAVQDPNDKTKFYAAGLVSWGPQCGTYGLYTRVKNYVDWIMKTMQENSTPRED
# Experimental: The anti-C1 esterase (C1r, C1s) activity was determined according to the method of Okamura et al. (Biochem. Biophys. Acta (1973), volume 295, pages 252-257). […] The values for C1s represent molar concentrations (IC50) of test compounds which inhibit 50% of the activity of C1s to hydrolyze ATEE (acetyltyrosine ethyl ester).
# Masugi's nephritis = test: Effectiveness in treating Masugi's nephritis (experimental glomerulonephritis), protein in urine; assay type: in vivo, rat; details: po, 30 mg/kg
# Experimental: […] […] As the index to effectiveness, the protein concentration in urine was determined. That is, when inflammation develops in the kidney, it causes damage to renal tubules, etc., and a resultant increase in protein concentration in urine.
# trypsin = biological target: T2, trypsin (Bos taurus, UniProt P00760); test: anti-trypsin activity, hydrolysis of TAME (tosylarginine methyl ester); assay type: biochemical
# T2 sequence (P00760 24-246): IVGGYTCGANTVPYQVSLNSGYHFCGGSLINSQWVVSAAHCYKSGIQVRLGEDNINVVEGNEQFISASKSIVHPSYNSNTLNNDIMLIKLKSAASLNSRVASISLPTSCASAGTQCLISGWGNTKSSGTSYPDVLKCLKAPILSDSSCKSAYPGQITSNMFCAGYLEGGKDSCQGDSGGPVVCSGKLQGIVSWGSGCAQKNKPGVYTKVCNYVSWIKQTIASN
# [1] = Toxicity in humans (Phase I study); assay type: in vivo, human; details: healthy male adult volunteers, capsules, 5 to 400 mg/man
# Experimental: Toxicity in humans (Phase I study): This test was for confirmation of the safety of the drug (which was administered to healthy male adult volunteers). Taking into consideration the above toxicity tests, the compound of Example 22 was prepared in the form of capsules containing the compound in an increasing amount (from 5 mg/man to 400 mg/man (body weight 50-60 kg)).
# [2] = monkey subacute toxicity test; assay type: in vivo; details: oral
# Experimental: The compound of Example 22 was tested in three groups (five monkeys per group) of monkeys at dosages of (1) 3 mg/kg/day, (2) 30 mg/kg/day, and (3) 300 mg/kg/day; the compound was administered orally (dose volume was 2 ml/kg) by gavage once a day for 13 weeks. Administration was followed by 20 ml sterile water per animal. Control monkeys received only the vehicle (sterile water for injection, U.S.P.) on the same regimen as the experimental groups. All doses were administered using a 18 French rubber catheter attached to a syringe.
# in vivo = details: rat
# Experimental: In the rat acute toxicity test, the LD50 was greater than 2,000 mg/kg (p.o. oral administration). The compound of Example 22 was tested in three groups.(five rats per group) of rats at dosages of (1) 2000 mg/kg, (2) 1000 mg/kg, and (3) 500 mg/kg; the compound was prepared in the form of a suspension in distilled water and administered orally.
# C1r = biological target: T3, C1r (Homo sapiens, UniProt P00736); test: anti-complement (anti-C1 esterase) activity, C1r hydrolysis of AAME (acetyl-arginine methyl ester); assay type: biochemical
# T3 sequence (P00736 18-705): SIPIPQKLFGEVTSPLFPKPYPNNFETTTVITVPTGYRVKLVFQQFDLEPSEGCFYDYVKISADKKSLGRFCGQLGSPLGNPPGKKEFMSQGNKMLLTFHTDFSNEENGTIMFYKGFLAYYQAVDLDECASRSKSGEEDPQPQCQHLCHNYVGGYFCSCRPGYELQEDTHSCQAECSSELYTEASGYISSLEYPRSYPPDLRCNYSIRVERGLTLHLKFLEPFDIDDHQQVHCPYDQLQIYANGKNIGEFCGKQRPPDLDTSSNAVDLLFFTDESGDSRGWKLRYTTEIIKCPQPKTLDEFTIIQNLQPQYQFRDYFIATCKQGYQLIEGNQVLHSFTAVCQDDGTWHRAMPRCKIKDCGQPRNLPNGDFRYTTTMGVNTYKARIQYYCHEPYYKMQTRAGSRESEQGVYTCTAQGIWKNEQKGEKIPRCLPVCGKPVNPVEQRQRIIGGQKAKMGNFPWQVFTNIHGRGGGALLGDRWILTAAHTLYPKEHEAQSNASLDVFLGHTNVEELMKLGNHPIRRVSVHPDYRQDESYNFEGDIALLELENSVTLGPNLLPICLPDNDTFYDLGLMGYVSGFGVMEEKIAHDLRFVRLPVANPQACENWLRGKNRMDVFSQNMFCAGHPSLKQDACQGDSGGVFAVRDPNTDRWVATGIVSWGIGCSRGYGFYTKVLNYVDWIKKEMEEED
structure (smiles),measurement,setting,value
"Cl.N=C(N)c1ccc2cc(OC(=O)c3ccc(CNC(=O)CCCC(=O)O)o3)ccc2c1 [Example 22, 6-Amidino-2-naphthyl 5-(4-carboxybutyrylaminomethyl)furan-2-carboxylate hydrochloride]",thrombin inhibition (in words),thrombin,inhibitor
same,IC50,"thrombin; hydrolysis of TAME, read-out: Thr: molar concentration inhibiting 50% of enzyme activity (IC50)",3.5 µM
same,C1s inhibition (in words),C1s,inhibitor
same,IC50,"C1s; hydrolysis of ATEE, read-out: Cls: molar concentration inhibiting 50% of C1s activity (IC50)",250 nM
same,Protein concentration in urine,Masugi's nephritis,3.0 ± 2.0 mg/mL
same,trypsin inhibition (in words),trypsin,inhibitor
same,IC50,"trypsin; hydrolysis of TAME, read-out: Try: molar concentration inhibiting 50% of enzyme activity (IC50)",430 nM
same,adverse side effects (in words),[1],No adverse side effects were found
same,"general conditions, biochemical examination, and survival (in words)","[2]; 13 weeks, up to 300 mg/kg/day",no changes were found
same,toxicity (in words),"[2]; three months, even at 300 mg/kg",no toxicity was recognized
same,LD50 at 336 h,"in vivo; in vivo, po",> 2000 mg/kg
same,general conditions and survival (in words),"in vivo; oral, up to 2,000 mg/kg, two weeks observation",no changes were found
same,C1r inhibition (in words),C1r,inhibitor
same,inhibition at 10 µM,"C1r; at a concentration of 1 × 10^-5 M, read-out: Clr: percentage inhibition",49%
